The text below walks through data of ChEMBL document CHEMBL4732255, “Evaluation of the antiproliferative activity of 106 marine microbial metabolites against human lung cancer cells and potential antiproliferative mechanism of purpuride G” (Bioorg Med Chem Lett, 2021).

In general, IC50 refers to the concentration that gives 50% inhibition.

Each structure is given as a SMILES string.

In experiment [1] the test system is NCI-H157. In words: Antiproliferative activity against human NCI-H157 cells assessed as reduction in cell viability measured after 72 hrs by sulforhodamine B assay. It is filed as functional, cell-based. Particulars: NCI-H157, 72 h. (In SRB staining, fixed cells bind dye roughly in proportion to their protein.)
For experiment [2], the system named is A549. In words: Antiproliferative activity against human A549 cells assessed as reduction in cell viability measured after 72 hrs by sulforhodamine B assay. In kind it is functional, cell-based. Particulars: A549, 72 h.
Another experiment deals with U-87 MG. In words: Antiproliferative activity against human U-87MG cells assessed as reduction in cell viability incubated for 72 hrs by sulforhodamine B assay. In kind it is functional, cell-based, U-87MG ATCC.
The next experiment deals with U-251. In words: Antiproliferative activity against human U-251 cells assessed as reduction in cell viability incubated for 72 hrs by sulforhodamine B assay. It is filed as functional, cell-based. Particulars: U-251, 72 h.
Experiment [3] deals with A549. In words: Antiproliferative activity against human A549 cells assessed as cell viability at 50 uM measured after 72 hrs by sulforhodamine B assay. It is filed as functional. The note with it: read-out: Activity.
For experiment [4], the system named is NCI-H157. In words: Antiproliferative activity against human NCI-H157 cells assessed as cell viability at 50 uM measured after 72 hrs by sulforhodamine B assay. It is filed as functional. The note with it: read-out: Activity.
Another experiment has as its system HL-60. In words: Antiproliferative activity against human HL-60 cells assessed as reduction in cell viability incubated for 72 hrs by sulforhodamine B assay. Particulars: HL-60, 72 h. It is filed as functional, cell-based.

Regarding `CC1=C[C@@]2(C)[C@@H]3C(=O)[C@]4(C[C@@H]2O)C[C@@](O)(Cc2ccc(cc2)O[C@H]2[C@H]3[C@@H]1[C@]1(C)C[C@H](C)C[C@H](C)[C@@H]21)NC4=O`, the IC50 in the experiment with NCI-H157 [1] turned out to be 6.5 µM; in the experiment with A549 [2], 7.3 µM; in the experiment on U-87 MG it was 12.4 µM; in the experiment with U-251 it was 22.8 µM. The viability at 50 µM in the experiment with A549 [3] and with NCI-H157 [4] was less than 50% throughout.

Turning to `COc1cc(O)c2c(c1)C(=O)c1cc(C)cc(O)c1C2=O` [PHYSCION], the concentration for half-maximal inhibition (IC50) in the experiment with NCI-H157 [1] amounted to 3 µM; with A549 [2], 1.5 µM. The viability at 50 µM with A549 [3] and in the experiment with NCI-H157 [4] was less than 50% in each case.

Take `CO[C@@]1(C)N(C[C@@H](O)c2ccccc2)C(=O)c2cc3c4ccccc4n(C)c3c(=O)n21`: the IC50 in the experiment with NCI-H157 [1] was determined as 22.9 µM; with A549 [2] it was 44.3 µM. In addition, the viability at 50 µM in the experiment with A549 [3] and in the experiment with NCI-H157 [4] was less than 50% in each case.

Regarding `C=C[C@@]1(C)C=C(C)[C@@H]2[C@@H]3[C@H](Oc4ccc(cc4)C[C@@H]4C(=O)NC(=O)[C@@H]4C(=O)[C@H]31)[C@@H]1[C@@H](C)C[C@@H](C)C[C@]12C`, the concentration for half-maximal inhibition (IC50) in the experiment with NCI-H157 [1] turned out to be 38.5 µM; in the experiment on A549 [2], 10.3 µM. Also, the viability at 50 µM with A549 [3] and with NCI-H157 [4] was less than 50% each time.

As to `CO[C@@]12Cc3ccc(cc3)O[C@H]3[C@@H]4[C@H]5C(=O)[C@](C[C@@H](O)[C@@]5(C)C=C(C)[C@H]4[C@]4(C)C[C@H](C)C[C@H](C)[C@@H]34)(C1)C(=O)N2`, the results for the IC50 in the experiment with NCI-H157 [1] and in the experiment on A549 [2] were 17.8 µM and 13.2 µM, respectively. Moreover, the viability at 50 µM in the experiment with A549 [3] and with NCI-H157 [4] was less than 50% throughout.

Take `CC(=O)c1nc(C(=O)NCCc2ccccc2)cc2c3ccccc3n(C)c12`: the IC50 with NCI-H157 [1] worked out at 8.6 µM; with A549 [2], 18.2 µM. Also, the viability at 50 µM in the experiment on A549 [3] and in the experiment with NCI-H157 [4] was less than 50% in each case.

As to `CC1=C[C@]2(C)[C@H](O)C[C@]34C[C@](O)(Cc5ccc(cc5)O[C@H]5[C@H]([C@H]2C3=O)[C@@H]1[C@]1(C)C[C@H](C)C[C@H](C)[C@@H]51)NC4=O`, in the experiment on HL-60, the IC50 came to 14.9 µM.

In the case of `CC(=O)c1nc(C(=O)NCCc2ccccc2)cc2c1[nH]c1ccccc12`, the IC50 was 19.4 µM with NCI-H157 [1] and 48.2 µM in the experiment on A549 [2]. In addition, the viability at 50 µM with A549 [3] and in the experiment on NCI-H157 [4] was less than 50% throughout.

For the molecule `C=C[C@@]1(C)C=C(C)[C@@H]2[C@@H]3[C@H](Oc4ccc(cc4)C[C@]4(OC)C[C@H](C(=O)N4)C(=O)[C@H]31)[C@@H]1[C@@H](C)C[C@@H](C)C[C@]12C`, the IC50 turned out to be 19.6 µM with NCI-H157 [1] and 25.2 µM in the experiment with A549 [2]. For the same molecule, the viability at 50 µM in the experiment on A549 [3] and in the experiment with NCI-H157 [4] was less than 50% each time.

As to `CO[C@@]1(C)N(CCc2ccccc2)C(=O)c2cc3c4ccccc4n(C)c3c(=O)n21`, the 50% inhibitory concentration (IC50) in the experiment on NCI-H157 [1] came to 9.8 µM; with A549 [2], 12.9 µM. The viability at 50 µM in the experiment on A549 [3] and in the experiment on NCI-H157 [4] was less than 50% throughout.

For `O=c1ncc2ncn([C@@H]3O[C@@H](CO)[C@H](O)[C@@H]3O)c2[nH]1`, the results for the IC50 in the experiment on NCI-H157 [1] and in the experiment on A549 [2] were 0.9 µM and 28.6 µM, respectively. Besides, the viability at 50 µM in the experiment with A549 [3] and in the experiment with NCI-H157 [4] was less than 50% in each case.

In the case of `CO[C@@]1(C)N(/C=C/c2ccccc2)C(=O)c2cc3c([nH]c4ccccc43)c(=O)n21`, the IC50 in the experiment with NCI-H157 [1] was determined as 15.1 µM; in the experiment on A549 [2] it was 12.7 µM. The viability at 50 µM in the experiment with A549 [3] and in the experiment with NCI-H157 [4] was less than 50% in each case.

As for `CO[C@@]1(C)N(/C=C/c2ccccc2)C(=O)C2=C[C@@]3(C(=O)N(C)c4ccccc43)C(=O)N21`, the IC50 was 8.1 µM with NCI-H157 [1] and 38.4 µM in the experiment with A549 [2]. For the same molecule, the viability at 50 µM with A549 [3] and with NCI-H157 [4] was less than 50% in each case.

With `Cc1cc(O)cc(Oc2cc(C)cc(O)c2)c1` [DIORCINOL], the IC50 amounted to 20.2 µM with NCI-H157 [1] and 31.6 µM in the experiment with A549 [2]. Besides, the viability at 50 µM in the experiment with A549 [3] and with NCI-H157 [4] was less than 50% throughout.

In the case of `O=C1c2cc(O)cc(O)c2C(=O)c2c1cc1c(c2O)[C@@H]2CCO[C@@H]2O1`, the IC50 in the experiment on NCI-H157 [1] was determined as 27 µM; in the experiment with A549 [2], 45.9 µM. Also, the viability at 50 µM in the experiment on A549 [3] and with NCI-H157 [4] was less than 50% throughout.

As for `C[C@H]1Oc2c(c(O)c3c4c(c(O)ccc24)OC3=O)C1(C)C`, the values for the IC50 in the experiment on NCI-H157 [1] and in the experiment with A549 [2] were 41.9 µM and 42.9 µM, respectively. The viability at 50 µM with A549 [3] and with NCI-H157 [4] was less than 50% throughout.

`Cn1c2ccccc2c2cc3n(c(=O)c21)[C@@](C)(O)N(CCc1ccccc1)C3=O`: the IC50 stood at 11 µM with NCI-H157 [1] and 21.2 µM in the experiment with A549 [2]. The viability at 50 µM with A549 [3] and in the experiment with NCI-H157 [4] was less than 50% each time.

`CC(C)[C@@H](C)/C=C/[C@@H](C)[C@H]1CC[C@H]2C3=CC=C4C[C@@H](O)CC[C@]4(C)[C@H]3CC[C@]12C` [ERGOSTEROL]: the IC50 in the experiment on NCI-H157 [1] is 23.3 µM; with A549 [2] it was 19.2 µM. Also, the viability at 50 µM with A549 [3] and with NCI-H157 [4] was less than 50% throughout.

`CO[C@@]1(C)N(/C=C\c2ccccc2)C(=O)c2cc3c4ccccc4n(C)c3c(=O)n21`: the values for the IC50 with NCI-H157 [1] and in the experiment with A549 [2] were 7.2 µM and 10.6 µM, respectively. Besides, the viability at 50 µM with A549 [3] and with NCI-H157 [4] was less than 50% in each case.

Take `C=C[C@@]1(C)C=C(C)[C@@H]2[C@@H]3[C@H](Oc4ccc(cc4)C[C@]45NC(=O)/C(=C(/O)[C@H]31)[C@H]4[C@@H]1C(=O)C(C)=C3[C@H](C)[C@@H](C)O[C@@]3(O)[C@]1(O)O5)[C@@H]1[C@@H](C)C[C@@H](C)C[C@]12C`: the IC50 in the experiment with NCI-H157 [1] stood at 22.3 µM; in the experiment on A549 [2] it was 12.3 µM. Also, the viability at 50 µM with A549 [3] and in the experiment with NCI-H157 [4] was less than 50% each time.

`CO[C@@]1(C)N(/C=C/c2ccccc2)C(=O)c2cc3c4ccccc4n(C)c3c(=O)n21`: the IC50 is 20.2 µM in the experiment on NCI-H157 [1] and 21.6 µM in the experiment on A549 [2]. Further, the viability at 50 µM with A549 [3] and in the experiment on NCI-H157 [4] was less than 50% throughout.

For the molecule `Cc1cc(O)c2c(c1)C(=O)c1cccc(O)c1C2=O` [CHRYSOPHANOL], the results for the IC50 in the experiment on NCI-H157 [1] and in the experiment on A549 [2] were 2.7 µM and 5.7 µM, respectively. Also, the viability at 50 µM in the experiment with A549 [3] and in the experiment on NCI-H157 [4] was less than 50% each time.

Take `CC1=C[C@]2(C)C(=O)C[C@]34C[C@](O)(Cc5ccc(cc5)O[C@H]5[C@@H]([C@@H]1[C@]1(C)C[C@H](C)C[C@H](C)[C@@H]51)[C@H]2C3=O)NC4=O`: the concentration for half-maximal inhibition (IC50) in the experiment with U-87 MG amounted to 1.06 µM; with U-251, 1.28 µM.

`CC1=C([C@H](C)[C@@H](C)OC=O)C(=O)C2=C(C1=O)[C@@H]1O[C@H](C)[C@@H](C)c3c(C)c(O)cc(c31)O2` [CITRININ H1]: the IC50 with NCI-H157 [1] turned out to be 32.4 µM; in the experiment on A549 [2], 20.9 µM. The viability at 50 µM with A549 [3] and with NCI-H157 [4] was less than 50% throughout.

As to `CC1=C[C@@]2(C)[C@@H]3C(=O)[C@]4(C[C@@H]2O)C[C@](O)(Cc2ccc(cc2)O[C@H]2[C@H]3[C@@H]1[C@]1(C)C[C@H](C)C[C@H](C)[C@@H]21)NC4=O`, the IC50 in the experiment with HL-60 came to 7.4 µM.
